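Tested at 5 concentrations; 48 h exposure; 96-well plates; endpoints linearly interpolated, else capped at highest concentration. Here, GI50 denotes the concentration required for 50% inhibition of growth.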 Calls of active or inactive are those of the source. No stated cut-off is given here; in the data, active = GI50 up to about 1.1 µM and inactive = higher.
What was measured:
Assay in all cases: NCI tumour cell line growth inhibition, 48 h
A549 = test system: A549
ACHN = test system: ACHN
COLO 205 = test system: COLO 205
HOP-62 = test system: HOP-62
KM12 = test system: KM12
Malme-3M = test system: Malme-3M
OVCAR-3 = test system: OVCAR-3
OVCAR-4 = test system: OVCAR-4
RXF 393 = test system: RXF 393
SF-539 = test system: SF-539
SK-OV-3 = test system: SK-OV-3
SN12C = test system: SN12C
UO-31 = test system: UO-31
A498 = test system: A498
HCT-116 = test system: HCT-116
SR = test system: SR
UACC-257 = test system: UACC-257

Measured: GI50

COC(=O)C1=C(C(=O)OC)C2(c3ccccc3)OC1(c1ccccc1)c1cc3ccccc3cc12
inactive: A549 2.43 µM | ACHN 1.68 µM | COLO 205 2.11 µM | HOP-62 13.3 µM | KM12 1.97 µM | Malme-3M 1.6 µM | OVCAR-3 1.37 µM | OVCAR-4 1.7 µM | RXF 393 1.29 µM | SF-539 1.67 µM | SK-OV-3 11.2 µM | SN12C 1.9 µM | UO-31 1.42 µM

O=c1cc(CO)oc2c3c(cc(O)c12)OCC(COC1OC(CO)C(O)C(O)C1O)=CC3 (centres undefined)
inactive: A498 > 100 µM | A549 > 100 µM | ACHN > 100 µM | COLO 205 > 100 µM | HCT-116 > 100 µM | HOP-62 > 100 µM | KM12 > 100 µM | OVCAR-3 > 100 µM | OVCAR-4 > 100 µM | RXF 393 > 100 µM | SF-539 > 100 µM | SK-OV-3 > 100 µM | SN12C > 100 µM | SR > 100 µM | UACC-257 > 100 µM | UO-31 > 100 µM

Cc1ccc(/C=C2\CCCCC2=O)cc1
inactive: A498 > 100 µM | A549 > 100 µM | ACHN 48.1 µM | COLO 205 > 100 µM | HCT-116 43.4 µM | HOP-62 > 100 µM | OVCAR-3 > 100 µM | OVCAR-4 33.6 µM | SF-539 > 100 µM | SK-OV-3 > 100 µM | SN12C 97.5 µM | UO-31 78.9 µM

CCOC(=O)/C(O)=C(/c1n[nH]c(=O)c2ccccc12)[N+](=O)[O-]
inactive: A498 > 100 µM | A549 > 100 µM | ACHN > 100 µM | COLO 205 > 100 µM | HCT-116 > 100 µM | HOP-62 > 100 µM | KM12 > 100 µM | Malme-3M > 100 µM | OVCAR-3 > 100 µM | OVCAR-4 > 100 µM | RXF 393 > 100 µM | SF-539 > 100 µM | SK-OV-3 > 100 µM | SN12C > 100 µM | UACC-257 > 100 µM | UO-31 > 100 µM

COc1cc(Cl)c2c3c(c(C(=O)c4ccccc4)oc13)CCC2
inactive: A498 > 100 µM | A549 > 100 µM | ACHN > 100 µM | COLO 205 > 100 µM | HCT-116 > 100 µM | HOP-62 > 100 µM | OVCAR-3 > 100 µM | OVCAR-4 > 100 µM | RXF 393 62.5 µM | SF-539 > 100 µM | SK-OV-3 > 100 µM | SN12C > 100 µM | UACC-257 > 100 µM

O=c1c2ccccc2c2nc3ccccc3nc2n1C1CCCCC1
inactive: A549 > 100 µM | ACHN > 100 µM | COLO 205 > 100 µM | HCT-116 > 100 µM | KM12 > 100 µM | Malme-3M > 100 µM | OVCAR-3 > 100 µM | OVCAR-4 32.9 µM | RXF 393 > 100 µM | SF-539 > 100 µM | SK-OV-3 > 100 µM | SN12C > 100 µM | SR > 100 µM | UACC-257 > 100 µM | UO-31 > 100 µM

CCO/C=C1\N=C(c2ccc(Cl)c(Cl)c2)OC1=O
inactive: A498 27 µM | A549 > 100 µM | ACHN > 100 µM | COLO 205 > 100 µM | HOP-62 50 µM | KM12 > 100 µM | Malme-3M > 100 µM | OVCAR-3 > 100 µM | OVCAR-4 > 100 µM | RXF 393 79.8 µM | SF-539 > 100 µM | SN12C > 100 µM | UACC-257 > 100 µM | UO-31 36.6 µM
